Columns and labels:
Assay type in all cases: cell-based
[1] = system: human colon carcinoma cells (HCT116); assay: Cell proliferation, crystal violet method; settings: for IC50: Homo sapiens, HCT-116, crystal violet, spectrophotometer, read-out: IC50 anti-proliferative effect, CRC (HCT116)
Procedure: (§1) The compound according to the invention, and in particular the synthetic quercetin derivatives described and illustrated herein were investigated in vitro by using human tumour cells and assessing their impact on the tumour proliferative capacity, with regard to the tumours described above. In particular, the following human tumour cell lines were assessed experimentally: 1) HCT116, colon adenocarcinoma cells; 2) H1299, lung adenocarcinoma cells; 3) A375, melanoma cells, and 4) A431, squamous skin cell carcinoma; 5) 786-0, renal carcinoma cells; 6) PC3, prostate carcinoma cells; 7) BT549, mammary carcinoma cells; 8) CAL27, tongue carcinoma cells (belonging to the head-and-neck carcinomas); 9) HepG2, hepatocellular carcinoma cells; 10) PANC-1, pancreas carcinoma cells; 11) T24, bladder carcinoma cells; 12) OVCAR-3, ovarian carcinoma cells. In addition, a normal human cell line, WS1 (skin fibroblasts) was also treated with the novel synthetic compounds.
(§2) Cell proliferation was quantified by the crystal violet method with a spectrophotometer. In short, after acquiring serial images (0, 24 and 48 hrs) with the EVOS XL Cell Imaging System microscope (Thermo Fisher Scientific), the cells imaged at 48 hrs were fixed with paraformaldehyde (4%) and stained with Crystal Violet (1%). Then, the specific absorbance (λ=590 nm) at 48 hrs was measured with a spectrophotometer (Infinite®200 PRO, Tecan). Data analysis was carried out by using ad-hoc Excel files for graphical representation and statistical processing (t-test). Moreover, the results obtained with Crystal Violet were confirmed by using another cell proliferation assessment method based on the real time cellular analyzer XCELLigence RTCA DP (ACEA Biosciences, Inc.). This tool allows cell growth to be monitored from electrical impedance-derived quantitative values (the so-called Cell Index) measured by tiny electrodes located at the base of the culture wells. Proliferation is monitored for several days (5-7) by setting a Cell Index per minute measure on the instrument. The data are analysed by processing various parameters calculated by the dedicated software, such as the cell duplication time, the slope and the Max Cell Index.
(§3) Cell proliferation was quantitated spectrophotometrically by the crystal violet method.

[2] = system: human ovarian carcinoma cells (OVCAR-3); assay: Cell proliferation, crystal violet method; settings: for OVCAR-3 cell growth vs vehicle control: 60 μM, FIG. 11a, 11b; for IC50: Homo sapiens, OVCAR-3, crystal violet, spectrophotometer, read-out: IC50 anti-proliferative effect, OCC - (OVCAR)
Procedure: as §1, §2, §3

[3] = system: human melanoma cells (A375); assay: Cell proliferation, crystal violet method; settings: for IC50: Homo sapiens, A-375, crystal violet, spectrophotometer, read-out: IC50 anti-proliferative effect, Melanoma (A375)
Procedure: as §1, §2, §3

[4] = system: human colon carcinoma cells (HCT116); assay: Intracellular ROS levels, DCFH2-DA probe; settings: 2 hrs of treatment; at the respective anti-proliferative IC50s; DCF fluorescence in A.U.; FIG. 22 left
Procedure: Intracellular ROS levels were measured in tumour cells by using the probe 2,7-dichlorodihydrofluorescein diacetate (DCFH2-DA) and a fluorescence spectrophotometer. DCFH2-DA diffuses readily through the cell membrane into the cytosolic space of the cell where it is hydrolyzed by intracellular esterases into the non-permeable DCFH2 product. DCFH2 oxidation by intracellular ROS (mainly H2O2, HO·, ROO·, NO· and ONOO) results in the production of intracellular fluorescent DCF, whose concentration is directly proportional to the levels of ROS in the cell. […] All the experiments were repeated at least 3 times. Data analysis was carried out with GraphPad Prism 6 for graphical representation and statistical processing (1-way ANOVA test).

Compound	HCT116 cell growth vs vehicle control ([1]; 10 μM and 30 μM, FIG. 15)	IC50 [1]	OVCAR-3 cell growth vs vehicle control [2]	IC50 [2]	A375 cell growth vs vehicle control ([3]; 10 μM and 30 μM, FIG. 14)	IC50 [3]	intracellular ROS levels in HCT116 cells [4]	HCT116 cell growth vs vehicle control ([1]; 100 μM, FIG. 3a, 3b, 13a, 13b)	proliferation of melanoma cells (A375) vs vehicle control ([3]; concentration not given, FIG. 12 for Compound 26)	HCT116 cell growth vs vehicle control ([1]; 30 μM and 100 μM, FIG. 16)	A375 cell growth vs vehicle control ([3]; 30 μM and 100 μM, FIG. 16)
O=C(NCCOCCOc1c(-c2ccc(O)c(O)c2)oc2cc(O)cc(O)c2c1=O)c1ccc(OCCCCCCOc2ccc(C(=O)NCCOCCOc3c(-c4ccc(O)c(O)c4)oc4cc(O)cc(O)c4c3=O)cc2)cc1 [Compound 19d]	significantly inhibited	0.74 µM	significantly inhibit	5.01 µM	significantly inhibited	1.62 µM	–	–	–	–	–
O=C(NCCOCCOc1c(-c2ccc(O)c(O)c2)oc2cc(O)cc(O)c2c1=O)c1ccc(-c2ccc(C(=O)NCCOCCOc3c(-c4ccc(O)c(O)c4)oc4cc(O)cc(O)c4c3=O)cc2)cc1 [Compound 19b]	significantly inhibited	5.51 µM	–	–	significantly inhibited	9.48 µM	significantly raise	–	–	–	–
O=C(CCCC(=O)NCCOCCOc1c(-c2ccc(O)c(O)c2)oc2cc(O)cc(O)c2c1=O)NCCOCCOc1c(-c2ccc(O)c(O)c2)oc2cc(O)cc(O)c2c1=O [Compound 19a]	–	> 1000 µM	–	–	–	–	–	–	–	–	–
COc1ccc(-c2ccc(C(=O)NCCOCCOc3c(-c4ccc(O)c(O)c4)oc4cc(O)cc(O)c4c3=O)cc2)cc1 [Compound 29g]	significantly inhibited	5.93 µM	–	–	significantly inhibited	7.84 µM	–	–	–	–	–
O=c1c(OCCOCCO)c(-c2ccc(O)c(O)c2)oc2cc(O)cc(O)c12 [Compound 26]	–	81.2 µM	–	–	–	52.3 µM	–	significantly inhibits	significantly inhibits	–	–
O=C(NCCOCCOc1c(-c2ccc(O)c(O)c2)oc2cc(O)cc(O)c2c1=O)c1cc(C(=O)NCCOCCOc2c(-c3ccc(O)c(O)c3)oc3cc(O)cc(O)c3c2=O)cc(-c2cc(C(=O)NCCOCCOc3c(-c4ccc(O)c(O)c4)oc4cc(O)cc(O)c4c3=O)cc(C(=O)NCCOCCOc3c(-c4ccc(O)c(O)c4)oc4cc(O)cc(O)c4c3=O)c2)c1 [Compound 25a]	–	304 µM	–	–	–	> 1000 µM	–	–	–	–	–
CCCCCCCCCCCCCCCC(=O)NCCOCCOc1c(-c2ccc(O)c(O)c2)oc2cc(O)cc(O)c2c1=O [Compound 29a]	significantly inhibited	15.7 µM	–	–	significantly inhibited	5.21 µM	–	–	–	–	–
CC/C=C\C/C=C\C/C=C\C/C=C\C/C=C\C/C=C\CCC(=O)NCCOCCOc1c(-c2ccc(O)c(O)c2)oc2cc(O)cc(O)c2c1=O [Compound 29f]	significantly inhibited	3.08 µM	significantly inhibit	11.8 µM	significantly inhibited	5.17 µM	–	–	–	–	–
O=C(CCCOc1c(-c2ccc(O)c(O)c2)oc2cc(O)cc(O)c2c1=O)NCc1ccc(CNC(=O)CCCOc2c(-c3ccc(O)c(O)c3)oc3cc(O)cc(O)c3c2=O)cc1 [Compound 15c]	significantly inhibited	15.8 µM	–	–	significantly inhibited	15.5 µM	–	–	–	–	–
NCCOCCOc1c(-c2ccc(O)c(O)c2)oc2cc(O)cc(O)c2c1=O [Compound 27]	–	378 µM	–	–	–	–	–	greater anti-proliferative effects	–	–	–
CCCCC/C=C\C/C=C\C/C=C\C/C=C\CCCC(=O)NCCOCCOc1c(-c2ccc(O)c(O)c2)oc2cc(O)cc(O)c2c1=O [Compound 29e]	significantly inhibited	4.36 µM	significantly inhibit	16.1 µM	significantly inhibited	5.89 µM	–	–	–	–	–
CCCCC/C=C\C/C=C\CCCCCCCC(=O)NCCOCCOc1c(-c2ccc(O)c(O)c2)oc2cc(O)cc(O)c2c1=O [Compound 29d]	significantly inhibited	2.89 µM	–	–	significantly inhibited	7.73 µM	–	–	–	–	–
O=C(NCCOCCOc1c(-c2ccc(O)c(O)c2)oc2cc(O)cc(O)c2c1=O)c1cc(C(=O)NCCOCCOc2c(-c3ccc(O)c(O)c3)oc3cc(O)cc(O)c3c2=O)cc(C(=O)NCCOCCOc2c(-c3ccc(O)c(O)c3)oc3cc(O)cc(O)c3c2=O)c1 [Compound 22a]	–	49.9 µM	–	–	–	136 µM	–	–	–	inhibit	inhibit
O=C(CCCOc1c(-c2ccc(O)c(O)c2)oc2cc(O)cc(O)c2c1=O)N[C@H]1CCCC[C@H]1NC(=O)CCCOc1c(-c2ccc(O)c(O)c2)oc2cc(O)cc(O)c2c1=O [Compound 15a]	significantly inhibited	13.3 µM	–	–	significantly inhibited	23 µM	–	–	–	–	–
O=C(NCCOCCOc1c(-c2ccc(O)c(O)c2)oc2cc(O)cc(O)c2c1=O)c1ccc(Oc2ccc(C(=O)NCCOCCOc3c(-c4ccc(O)c(O)c4)oc4cc(O)cc(O)c4c3=O)cc2)cc1 [Compound 19c]	significantly inhibited	1.28 µM	significantly inhibit	7.44 µM	significantly inhibited	3.95 µM	–	–	–	–	–
O=C(CCCOc1c(-c2ccc(O)c(O)c2)oc2cc(O)cc(O)c2c1=O)NCCCOCCOCCOCCCNC(=O)CCCOc1c(-c2ccc(O)c(O)c2)oc2cc(O)cc(O)c2c1=O [Compound 15b]	significantly inhibited	18.6 µM	–	–	significantly inhibited	24.6 µM	–	–	–	–	–
O=C(CCCOc1c(-c2ccc(O)c(O)c2)oc2cc(O)cc(O)c2c1=O)NCC1CCC(CNC(=O)CCCOc2c(-c3ccc(O)c(O)c3)oc3cc(O)cc(O)c3c2=O)CC1 (stereo not shown) [Compound 15d]	significantly inhibited	12.1 µM	–	–	significantly inhibited	7.16 µM	–	–	–	–	–
CCCCCCCC/C=C\CCCCCCCC(=O)NCCOCCOc1c(-c2ccc(O)c(O)c2)oc2cc(O)cc(O)c2c1=O [Compound 29c]	significantly inhibited	3.64 µM	–	–	significantly inhibited	7.03 µM	–	–	–	–	–
CCCCCCCCCCCCCCCCCCCCCC(=O)NCCOCCOc1c(-c2ccc(O)c(O)c2)oc2cc(O)cc(O)c2c1=O [Compound 29b]	–	> 1000 µM	–	–	–	> 1000 µM	–	–	–	–	–
CCCCCCCCCCCCCCCC(=O)NCCc1ccc(OCCCC(=O)NCCOCCOc2c(-c3ccc(O)c(O)c3)oc3cc(O)cc(O)c3c2=O)c(OCCCC(=O)NCCOCCOc2c(-c3ccc(O)c(O)c3)oc3cc(O)cc(O)c3c2=O)c1 [Compound 36]	–	112 µM	–	–	–	89.8 µM	–	–	–	inhibit	inhibit
O=C(NCCOCCOc1c(-c2ccc(O)c(O)c2)oc2cc(O)cc(O)c2c1=O)C1CC(C(=O)NCCOCCOc2c(-c3ccc(O)c(O)c3)oc3cc(O)cc(O)c3c2=O)CC(C(=O)NCCOCCOc2c(-c3ccc(O)c(O)c3)oc3cc(O)cc(O)c3c2=O)C1 (stereo not shown) [Compound 22b]	–	407 µM	–	–	–	> 1000 µM	–	–	–	–	–

Reference: patent US12059400B2, “Medical compound” (VERA SALUS RICERCA S.R.L., priority 2017, dated 2024)
